# Data from patent US9943500B2, “Methods of treating topical microbial infections” (LUODA PHARMA PTY LIMITED, priority 2013, dated 2018).
# Like-named read-outs stand apart in the source and are kept apart here.
# Experiments:
# [1] = system: ATCC 49775 reference strain; assay: Macrodilution time-kill assay (viable counts); conditions: 24 hours
# Experimental: (§1) Due to the detection limit of the OD measurements, the time-kill assays were also performed in macrodilution. In 15 mL tubes, 9 mL volumes of the test compounds in CAMHB were prepared at one, four and eight times the MIC concentration and 9 mL volumes of ampicillin were prepared in CAMHB at one and four times the MIC. 1 mL of a 4 to 5×10^6 bacterial suspension (as prepared for MIC testing) was added to each of the tubes as well as a growth control tube containing only 9 mL of CAMHB. These tubes were incubated at 37° C. in an orbital shaker rotating at 100 rpm for 24 hours. At 0, 1, 4, 8, 12 and 24 hours after addition of the bacteria, 100 μL samples were removed from each tube and serial diluted in 9.1 g/L saline solution. The dilutions were then plated in duplicate onto plate count agar and incubated for 24 hours at 37° C. After incubation, viable counts were obtained from the number of colonies visible on the agar and these were used to calculate the number of CFU/mL at each time point. For the macrodilution time-kill analysis, only the ATCC 49775 reference strain and MRSA 9 were assessed in order to further investigate the antibacterial activity against methicillin-resistant strains. These macrodilution time-kill assays were independently repeated and bactericidal activity was defined as a ≥3 log decrease in the number of CFU/mL.
# MRSA 9 = assay: Macrodilution time-kill assay (viable counts); conditions: 24 hours
# Experimental: as §1
# [2] = system: 51 Australian bovine mastitis isolates, primarily S. aureus, S. agalactiae and S. uberis; assay: Minimum inhibitory concentration assay, bovine mastitis isolates (Example 3); assay type: cell-based; conditions: all 51 isolates
# Excerpt: Fifty-one dairy bovine mastitis isolates, encompassing a variety of bacterial species, were isolated from milk samples collected from dairy farms in rural South Australia by the University of Adelaide Ambulatory Clinic. Cellular morphology observed from Gram stains and catalase testing was used to differentiate Staphylococcus, Streptococcus and Corynebacterium species from Gram-negative species. Further biochemical testing including coagulase, Lancefield grouping, esculin hydrolysis and CAMP tests were used to identify the isolates to species level. Where biochemical test results were not definitive in identifying species, amplification and sequencing of the 16S ribosomal RNA gene was used to confirm the identity of the isolates.
# Minimum inhibitory concentration tests were performed in the manner outlined by the CLSI (CLSI 2012). Test compounds were dispensed into a 96-well microtitre tray containing 90 μl of CAMHB in 90 μl volumes and serial diluted to obtain a concentration gradient ranging from 128 μg/ml to 0.25 μg/ml (see FIG. 24). For Streptococcus species, CAMHB was replaced with a CAMHB supplement with 4% lysed-sheep blood (4% LSB:CAMHB). 4% LSB:CAMHB was prepared by mixing 5 ml sheep blood to 5 ml milliQ water, and repeated freezing at −20° C. and thawing, followed by centrifuged for 20 min at 7000 rpm. 7 ml of the supernatant was removed and added to 93 mL of CAMB.
# Bacterial suspensions were prepared by emulsifying fresh colonies obtained from an overnight culture on Sheep Blood Agar (SBA) in 4 mls of 9.1 g/l physiological saline to an optical density read at 600 nm (OD600 nm) between 1.00 and 1.20. Standardised bacterial suspensions were diluted 1:10 in physiological saline and dispensed into all wells, excluding the negative control wells, in 10 μL volumes giving a final concentration of between 4×10^5 and 5×10^5 CFU/mL in each well. 96-well microtitre trays were incubated for 24 hours at 37° C. in 5% CO2 and then assessed both visually and using OD readings from a microplate reader at a wavelength of 600 nm. These tests were performed in duplicate and repeated if discrepancies in MIC values were observed between replicates.
# The minimum inhibitory concentration (MIC) was determined to be the lowest concentration of antibiotic that prevented growth of bacteria both visually and using OD readings. MIC values were collated and used to determine the lowest concentration of each compound effective against 50% and 90% of isolates, known as the MIC50 and MIC90 respectively. These values as well as the range of MIC values were then used for direct comparisons between test compounds and for general comparisons with ampicillin.
# [3] = system: methicillin sensitive and methicillin-resistant staphylococci; assay: Minimum inhibitory concentration assay, 42 Staphylococcus isolates (Example 1); assay type: cell-based
# Experimental: Forty-two isolates of Staphylococcus of varying species and strain type were collected from isolate collections. Biochemical testing including coagulase, latex agglutination testing for protein A, Vogues-Proskauer tests and resistance to polymyxin B were used to identify the species of Staphylococcus. All isolates were also screened for resistance to various antimicrobials commonly used for the treatment of skin infections. This was performed using the disk diffusion method and resistance standards as outlined by the CLSI. The following antimicrobials were used: amoxicillin-clavulanic acid (30 μg), cephalothin (30 μg), clindamycin (2 μg), enrofloxacin (5 μg), erythromycin (15 μg), gentamicin (10 μg), imipenem (10 μg), oxacillin (1 μg), penicillin G (10 units), tetracycline (30 μg), 1:19 trimethoprim-sulfamethoxazole (25 μg) and vancomycin (30 μg).
# Minimum inhibitory concentration tests were performed according to CLSI Standards (CLSI 2012). 90 μL of one of the test compound solutions, or ampicillin, was added to the end column of a 96 well plate that contained 90 μL of CAMHB in each well. The solutions were then serially diluted across the row, leaving 2 columns for positive and negative controls (FIG. 2). A bacterial suspension was prepared by adding fresh colonies obtained from an overnight culture on Sheep Blood Agar (SBA) to a 9.1 g/L saline solution. This suspension was adjusted to a concentration of between 4×10^8 and 5×10^8 CFU/mL. […] 1 mL of this suspension was added to 9 mL of saline before being added to all wells, excluding the negative control wells, in 10 μL volumes giving a final concentration of between 4×10^5 and 5×10^5 CFU/mL in each well. The tests were then incubated for 24 hours at 37° C. and then assessed both visually and using OD readings from a microplate reader at a wavelength of 600 nm. These tests were performed in duplicate but repeated if discrepancies were observed.
# The minimum inhibitory concentration (MIC) was determined to be the lowest concentration of antibiotic that prevented growth of bacteria both visually and using OD readings. Direct statistical comparisons between the test compounds and ampicillin could not be performed in light of confidential information restrictions, such as restrictions on disclosure of information relating to the compound structure, such as molecular weight. Instead, MIC values were collated and used to determine the lowest concentration of each compound that was effective against 50% and 90% of isolates, referred to as the MIC50 and MIC90 respectively. These values as well as the range of MIC values were then used for direct comparisons between test compounds and for general comparisons with ampicillin.
# [4] = cited from earlier work
# [5] = dogs; cited from earlier work
# [6] = system: methicillin-sensitive and methicillin-resistant strains of Staphylococcus; assay: Minimum bactericidal concentration determination, Staphylococcus isolates (Example 1); conditions: for bactericidal activity (MBC testing): lower concentrations; for strain type for which bactericidal activity was more consistent: methicillin-sensitive versus methicillin-resistant strains
# Experimental: Following determination of the MIC using the 96 well MIC plate, a variation of the drop plate method was used to determine minimum bactericidal concentration (MBC) for each of the test compounds. These were analysed using samples taken from the MIC plate following incubation. […] Each concentration was pipetted in duplicate with duplicates being pipetted on an inner ring of drops. The plates were incubated at 37° C. overnight and assessed the following day for growth. The MBC was defined as the concentration at which 99.9% of colonies were eradicated, which was visually assessed by a lack of growth on the agar where the drop was placed.
# [7] = system: ATCC 49775 reference strain; assay: Microdilution time-kill assay (optical density); conditions: 48 hour period; one, four and eight times the MIC
# Experimental: Time-kill assays were performed according to the M26-A guidelines of the CLSI, with modifications. The test compounds and ampicillin were serial diluted in CAMHB across the rows of a 96 well plate and a bacterial suspension was prepared and added in the same manner as the MIC testing. The 96 well plates were then incubated at 37° C. for 48 hours being removed at specific time points and OD for the positive control wells as well as one, four and eight times the MIC of the compound specific to the strain being tested were assessed using a spectrophotometer at a wavelength of 600 nm. The time points assessed were 0, 1, 2, 4, 8, 12, 24 and 48 hours after the addition of the bacterial suspension to the wells. Each test compound was tested in triplicate while ampicillin was tested in duplicate and this test was independently repeated. […] One strain from each of the categories of Staphylococcus in the isolate collection (methicillin-sensitive, methicillin resistant and coagulase negative) were selected as well as the ATCC reference strain for comparison. These strains were strains MSS 1, MSS 11, MRSA 9 and the ATCC 49775 reference strain.
Compound,MIC90 ([2]; read-out: MIC90),MIC50 and MIC90 values compared with ampicillin [3],bactericidal activity (MBC testing) [6],strain type for which bactericidal activity was more consistent [6],also measured
CC1(C)S[C@@H]2[C@H](NC(=O)[C@H](N)c3ccccc3)C(=O)N2[C@H]1C(=O)O [ampicillin],–,–,–,–,decrease in the number of viable bacteria ([1]; all concentrations tested): > 3 log10; decrease in the number of viable bacteria (MRSA 9; all concentrations tested): > 3 log10
"CC[C@@]1([C@@H]2O[C@@H]([C@H]3O[C@@](O)(CO)[C@H](C)C[C@@H]3C)C[C@@H]2C)CC[C@H]([C@]2(C)CC[C@]3(C[C@H](O)[C@@H](C)[C@@H]([C@@H](C)[C@@H](OC)[C@H](C)C(=O)O)O3)O2)O1 [LP 9666, Monensin]",128 µg/mL,considerably lower than ampicillin,–,–,–
"CC[C@@H](C(=O)[C@@H](C)[C@@H](O)[C@H](C)[C@@H]1O[C@@H]([C@@H](CC)C(=O)O)CC[C@@H]1C)[C@H]1O[C@]2(C=C[C@@H](O)[C@]3(CC[C@@](C)([C@H]4CC[C@](O)(CC)[C@H](C)O4)O3)O2)[C@H](C)C[C@@H]1C [LP 1088, Salinomycin]",2 µg/mL,considerably lower than ampicillin,some bactericidal activity in lower concentrations,more consistently for methicillin-sensitive strains,"toxicity after accidental exposure ([4]; accidental inhalation and swallowing of about 1 mg/kg, human): severe acute and chronic salinomycin toxicity; acceptable daily intake (ADI) ([4]; humans, European Food Safety Authority risk assessment): 5 µg/kg; daily intake leading to neurotoxic effects (myelin loss, axonal degeneration) [5]: more than 500 μg/kg"
"CO[C@@H]1[C@@H](OC)[C@H](C)[C@@](O)(CC(=O)O)O[C@H]1[C@H](C)[C@H]1O[C@@]2(CC[C@@](C)([C@H]3CC[C@@](C)([C@@H]4O[C@@H]([C@H]5O[C@](C)(O)[C@H](C)C[C@@H]5C)C[C@@H]4O[C@@H]4C[C@H](OC)[C@@H](OC)[C@H](C)O4)O3)O2)C[C@H](O)[C@H]1C [LP 6315, Maduramicin]",4 µg/mL,considerably lower than ampicillin,some bactericidal activity in lower concentrations,more consistently for methicillin-sensitive strains,"growth (optical density) compared to growth control [7]: prevented the growth; MBC50 rank among test compounds ([6]; methicillin-resistant isolates): lowest MBC50 values; bactericidal or bacteriostatic (time-kill) ([1]; most concentrations, ATCC 49775 and MRSA 9): bacteriostatic; decrease in colonies (MRSA 9; four times the MIC): > 3 log10"
"CC[C@@H](C(=O)O)[C@@H]1O[C@@H]([C@@H](C)[C@H](O)[C@H](C)C(=O)[C@H](CC)[C@H]2O[C@]3(C=C[C@@H](O)[C@]4(CC[C@@](C)([C@H]5CC[C@](O)(CC)[C@H](C)O5)O4)O3)[C@H](C)C[C@@H]2C)[C@@H](C)C[C@@H]1C [LP 4525, Narasin]",–,–,–,–,MIC50 [2]: 0.25 µg/mL; MIC90 [2]: 1 µg/mL
Narasin [LP 4525],–,considerably lower than ampicillin,some bactericidal activity in lower concentrations,more consistently for methicillin-sensitive strains,–
